Results from US20050244413A1, “Compositions and methods for treating cancer using cytotoxic CD44 antibody immunoconjugates and chemotherapeutic agents” (priority 2002, published 2005).

Assays:
FaDuDD tumors = experiment: BIWI 1 combination with docetaxel in nude mice xenografted with FaDuDD tumors; format: in vivo, mouse
Experimental: The antibody solution was injected into the tail vein with an injection volume of 200 μl for a 25 g mouse. In the control groups without BIWI 1 treatment animals were injected i.v. with PBS. […] The solution was injected into the tail vein with an injection volume of 200 μl for a 25 g mouse. […] The solution was injected into the tail vein with an injection volume of 200 μl for a 25 g mouse.
Tumor sizes and body weights were recorded 2-3 times per week. Tumor sizes were measured with a calliper (length and width) and the volume was calculated according to the following formula: volume (length)×(width)^2×([…]). The tolerability of the treatment was monitored by measuring mouse weight during the whole observation period. […] For calculation of the mean tumor volumes per group, the last values of tumor size for individual animals were carried forward in case that these animals had to be sacrificed due to large tumor burden before the whole group was terminated. In addition to the absolute tumor volume in mm^3, the relative tumor volumes (RTV) were calculated as follows:
RTV=(tumor volume at day x)/(tumor volume at start of treatment)×100 For the evaluation of treatment efficacy the following parameters were calculated: • T/C (%)=(mean RTV of treated group)/(mean RTV of control group)×100 • T4T (tumor quadrupling time)=time until the mean RTV reaches 400% • GDF4 (growth delay factor)=T4T treated/T4T control.
In addition, for some experiments, the mean time for tumors to reach 8 times (T8T) their initial sizes were also calculated. The growth delay factor (GDF8) was then calculated accordingly. Percentages of mean relative tumor volumes of treated versus control groups (T/C) were calculated on the days indicated. For statistical evaluation of combination therapies exact Wilcoxon tests were used. Tolerability was assessed by monitoring body weight changes.
To assess the efficacy of BIWI 1 in combination with the taxane docetaxel (Taxotere), non-curative doses of both drugs were tested as single agents or in combination in nude mice xenografted with FADuDD tumors. In pilot experiments a dose of 3 mg/kg docetaxel (q7dx4) was determined to be non-curative in this model. BIWI 1 was used at the non-curative dose of 200 μg/kg DM 1 and at a somewhat higher dose (300 μg/kg DM1).
The effect was somewhat more pronounced in the two BIWI 1 monotherapy treatment groups with T/C 41-30% and GDF4: 2.8-4.4. Complete tumor regression could be observed in 1/8 cases with the higher BIWI 1 dose. […] Treatment was well tolerated in all groups, except for a slight unexplained weight loss (approx. −5%) in the docetaxel monotherapy group.

MDA-MB-453 tumors = experiment: BIWI 1 combination with capecitabine in nude mice xenografted with MDA-MB-453 tumors; format: in vivo, mouse; conditions: BIWI 1 75 μg/kg DM1 i.v. q7dx3
Experimental: The xenograft model MDA-MB-453 was handled as in Section 2.8.
BIWI 1 solution (protein concentration 2.95 mg/ml, 53.6 μg DM1/ml, 3.7 molecules DM1/molecule antibody) was diluted in PBS to a DM1 concentration of 75 μg/kg body weight. […] The antibody solution was injected into the tail vein with an injection volume of 200 μl for a 25 g mouse. In the control groups without BIWI 1 treatment animals were injected i.v. with PBS. BIWI 1 was given i.v. into the tail vein at a dose of 75 μg DM1/kg once weekly, for three weeks. Capecitabine (150 mg tablets, Roche) was given intragastrically (by gavage needle, as a suspension in water) at a dose of 375 or 500 mg/kg during three weeks on 5 consecutive days per week.
To assess the efficacy of BIMI 1 in combination with capecitabine, non-curative doses of both drugs were tested as single agents or in combination in nude mice xenografted with MDA-MB453 tumors.
For the combinations experiments BIWI 1 with 75 μg/kg DM1 was combined with 375 or 500 mg/kg capecitabine.

[1] = Tolerability of BIWI 1 monotherapy in nude mice (mouse weight); format: in vivo; conditions: FaDu xenografted mice, 21 mg/kg/d BIWI 1
Experimental: In vivo anti-tumor efficacy of BIWI 1 was tested in three nude mouse xenograft models applying antigen-positive human tumors: A431 (ATCC # CRL 1555; epidermoid carcinoma of the vulva), FaDu (ATCC # HTB 43; squamous cell carcinoma of the pharynx), and MDA-MB 453 (ATCC # HTB-131; breast carcinoma). The cells were received from ATCC and cultured in RPMI1640 medium containing 10% fetal calf serum and supplements. 1×10^6 tumors cells were transplanted subcutaneously into the right flank of 6 week old female NMRI-nu/nu mice. Tumor growth was monitored by measuring tumor size. A tumor response was rated as complete response when the tumor completely disappeared at any time after start of treatment. The response was rated as partial response when the tumor volume decreased after treatment but thereafter started regrowing. The tolerability of the treatment was monitored by measuring mouse weight during the observation period.
The tolerability of BIWI 1 monotherapy was determined by monitoring mouse weight during the whole duration of the experiment in the 2 models. The maximum observed average weight loss per group was 6% in FaDu xenografted mice treated with 21 mg/kg/d BIWI 1 (FIG. 5). The weight loss started around day 3 of treatment and lasted until day 10, thereafter animals regained weight and behaved similar as control animals. […]

[2] = test system: antigen-positive cell line FaDu; experiment: In vitro cytotoxicity, MTS/PMS cell proliferation assay, FaDu; format: cell-based, human; conditions: FaDu cells, 4 days exposure
Experimental: (§1) For determination of viable cells the Cell Titer 96® AQueous non-radioactive cell proliferation assay (Promega) was used. Five thousand cells per well were seeded into 96-well plates in 90 μl medium without phenole red. Cells were allowed to settle down for 1 to 3 h and then serial dilutions of the immunoconjugate in 10 μl PBS were added. Cells without immunoconjugate served as negative control. Cells were incubated for 4 days at 37° C. in a humified 5% CO2 atmosphere and then 20 μl MTS/PMS were added according to the manufacturer's recommendation. After additional 1 to 4 h incubation at 37° C. the absorbance at 490 nm was recorded using an ELISA plate reader. For each cell line triplicates were analyzed. The percentage of the surviving cell fraction and the IC50 value were calculated using the GraphPad Prism® (Version 3.0) software.
(§2) The in vitro cytotoxicity of BIWI 1 was evaluated using the antigen-positive cell lines A431 and FaDu, and the antigen-negative cell line […]. Cells were exposed to different concentrations of BIWI 1 for 4 days, then stained with MTS/PMS and assayed on an ELISA plate reader. The surviving fractions of cells were then calculated using the GraphPad Prism® software package.

[3] = test system: antigen-negative cell line A549; experiment: In vitro cytotoxicity, MTS/PMS cell proliferation assay, A549; format: cell-based; conditions: A549 cells, highest concentration of BIWI 1 tested (5×1 0-7 M), 4 days
Experimental: as §1, §2

[4] = BIWI 1 200 μg/kg DM1 i.v. q7dx4
[5] = BIWI 1 300 μg/kg DM1 i.v. q7dx4

Substance: BIWI 1
- GDF4 (FaDuDD tumors; [4]): 2.8
- T4T (FaDuDD tumors; [4]): 20.1 days
- T/C (d 16) (FaDuDD tumors; [4]): 41%
- complete tumor regression (FaDuDD tumors; BIWI 1 300 μg/kg DM1 (higher dose) q7dx4): 1/8
- GDF4 (FaDuDD tumors; [5]): 4.4
- T4T (FaDuDD tumors; [5]): 31.1 days
- T/C (d 16) (FaDuDD tumors; [5]): 30%
- GDF4 (MDA-MB-453 tumors): 2.6
- T4T (MDA-MB-453 tumors): 26.9 days
- T/C (d25) (MDA-MB-453 tumors): 31%
- maximum observed average weight loss per group [1]: 6%
- IC50 [2]: ~24 nM
- surviving fraction [3]: 50%
